According to PMC10926851 (Journal of medicinal chemistry, 2021):
Entries after “also recorded” stand apart in the source; their conditions may differ. Read-outs that look alike come from different tables or passages of the source.

Key:
[1] = biological target: HDAC4 (Homo sapiens, UniProt P56524); experiment: HDAC4 activity assay; type: biochemical; conditions: HDAC4 vs HDAC8
[2] = test system: CCRF-CEM cells; experiment: Western blotting; type: cell-based, human; conditions: 10 μM, 5 h
[3] = test system: CCRF-CEM (T-cell leukemia); conditions: for SCI (CC50 HS-27/CC50 cancer), CEM: selective cytotoxicity index; for cytotoxicity at 50 μM, CEM (printed in CC50 column): 72 h
[4] = test system: Ramos (Burkitt's B-cell lymphoma); conditions: selective cytotoxicity index
[5] = test system: HeLa (cervical adenocarcinoma); conditions: for SCI (CC50 HS-27/CC50 cancer), HeLa: selective cytotoxicity index
[6] = test system: CEM (T cell leukemia) xenografts; conditions: mouse, in vivo
[7] = biological target: T1, HDAC8 (Homo sapiens, UniProt Q9BY41); experiment: HDAC8 activity assay; type: biochemical; conditions: at tested concentrations
T1 sequence (Q9BY41 1-377): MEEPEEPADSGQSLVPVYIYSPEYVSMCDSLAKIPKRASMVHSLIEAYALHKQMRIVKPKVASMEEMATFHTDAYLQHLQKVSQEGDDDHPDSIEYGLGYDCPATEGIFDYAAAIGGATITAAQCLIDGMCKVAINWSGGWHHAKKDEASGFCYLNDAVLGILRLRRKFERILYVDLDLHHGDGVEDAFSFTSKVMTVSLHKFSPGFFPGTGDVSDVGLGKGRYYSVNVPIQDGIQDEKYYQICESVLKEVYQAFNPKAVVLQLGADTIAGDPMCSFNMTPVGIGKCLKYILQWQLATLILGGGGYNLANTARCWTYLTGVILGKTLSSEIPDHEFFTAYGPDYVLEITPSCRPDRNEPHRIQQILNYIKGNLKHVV

[8] = test system: HS-27 (normal foreskin fibroblasts); experiment: DNS cytotoxicity assay, HS-27; type: cell-based, human; conditions: 72 h, noncancerous cells
[9] = test system: HeLa (cervical adenocarcinoma); experiment: cells; conditions: Homo sapiens, 72 h, read-out: % cell death at 10 μM, HeLa
[10] = biological target: T2, PPARγ (Homo sapiens, UniProt P37231); experiment: PPARγ-GAL4 transactivation assay on HepG2 cells; type: cell-based; conditions: HepG2, 25, 5 and 1 μM
T2 sequence (P37231 238-503 limits assumed): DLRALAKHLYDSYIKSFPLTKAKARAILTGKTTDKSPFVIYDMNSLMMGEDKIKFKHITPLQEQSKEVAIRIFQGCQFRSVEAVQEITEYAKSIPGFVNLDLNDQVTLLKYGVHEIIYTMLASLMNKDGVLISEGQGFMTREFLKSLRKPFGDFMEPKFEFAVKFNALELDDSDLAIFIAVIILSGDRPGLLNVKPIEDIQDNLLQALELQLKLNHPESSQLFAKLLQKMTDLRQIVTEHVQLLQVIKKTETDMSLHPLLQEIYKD

Sequence of HDAC4 (P56524 655-1084 limits assumed): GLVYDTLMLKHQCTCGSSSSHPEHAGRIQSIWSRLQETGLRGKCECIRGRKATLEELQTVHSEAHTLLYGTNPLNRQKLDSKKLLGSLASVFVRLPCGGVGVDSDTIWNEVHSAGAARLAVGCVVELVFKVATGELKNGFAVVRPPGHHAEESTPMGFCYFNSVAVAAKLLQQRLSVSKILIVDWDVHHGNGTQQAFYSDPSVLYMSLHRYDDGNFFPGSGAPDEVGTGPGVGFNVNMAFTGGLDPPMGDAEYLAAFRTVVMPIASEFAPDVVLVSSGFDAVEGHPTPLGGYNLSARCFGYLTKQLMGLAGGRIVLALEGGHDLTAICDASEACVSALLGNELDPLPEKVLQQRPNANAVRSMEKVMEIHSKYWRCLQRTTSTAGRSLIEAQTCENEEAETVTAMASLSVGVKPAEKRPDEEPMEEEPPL

## O=C(COc1ccc2cc(/C=C3/SC(=O)NC3=O)ccc2c1)Nc1ccccc1 [7a, 2-((6-((2,4-Dioxothiazolidin-5-ylidene)methyl)naphthalen-2-yl)-oxy)-N-phenylacetamide]
[1]
  potency toward HDAC4 over HDAC8 (from IC50 values): at least 2 fold

## O=C(COc1ccc2cc(/C=C3/SC(=O)NC3=O)ccc2c1)Nc1ccc(F)cc1 [7b, 2-((6-((2,4-Dioxothiazolidin-5-ylidene)methyl)naphthalen-2-yl)-oxy)-N-(4-fluorophenyl)acetamide]
[1]
  potency toward HDAC4 over HDAC8 (from IC50 values): at least 2 fold

## Cc1ccc(NC(=O)COc2ccc3cc(/C=C4/SC(=O)NC4=O)ccc3c2)cc1 [7c, 2-((6-((2,4-Dioxothiazolidin-5-ylidene)methyl)naphthalen-2-yl)-oxy)-N-(p-tolyl)acetamide]
[2]
  p53 expression: no upregulated expression was observed
[2]; vs pioglitazone 10 μM
  c-Myc protein expression: downregulation of the c-Myc protein much greater than positive control pioglitazone
  cleaved caspase-3 expression: increased expression of cleaved caspase-3
[3]
  SCI (CC50 HS-27/CC50 cancer), CEM: 14.4
[4]
  SCI (CC50 HS-27/CC50 cancer), Ramos: 5.8
[5]
  SCI (CC50 HS-27/CC50 cancer), HeLa: 3.9
[6]
  body weights of the mice: not significantly affected

## O=C(COc1ccc2cc(/C=C3/SC(=O)NC3=O)ccc2c1)Nc1cccc(C(F)(F)F)c1 [7e, 2-((6-((2,4-Dioxothiazolidin-5-ylidene)methyl)naphthalen-2-yl)-oxy)-N-(3-(trifluoromethyl)phenyl) acetamide]
[7]
  HDAC8 inhibition (in words): did not show HDAC8 inhibition
[8]
  % cell death at 10 μM, HS-27: >40%

## O=C(COc1ccc2cc(/C=C3/SC(=O)NC3=O)ccc2c1)Nc1cccc(Cl)c1 [7f, N-(3-Chlorophenyl)-2-((6-((2,4-dioxothiazolidin-5-ylidene)-methyl)naphthalen-2-yl)oxy)acetamide]
[7]
  HDAC8 inhibition (in words): did not show HDAC8 inhibition
[4]
  SCI (CC50 HS-27/CC50 cancer), Ramos: >10

## COc1cccc(NC(=O)COc2ccc3cc(/C=C4/SC(=O)NC4=O)ccc3c2)c1 [7g, 2-((6-((2,4-Dioxothiazolidin-5-ylidene)methyl)naphthalen-2-yl)-oxy)-N-(3-methoxyphenyl)acetamide]
[1]
  potency toward HDAC4 over HDAC8 (from IC50 values): at least 2 fold
[4]
  SCI (CC50 HS-27/CC50 cancer), Ramos: >10
[5]
  SCI (CC50 HS-27/CC50 cancer), HeLa: >10
[9]
  cytotoxicity at 10 µM: > 40%

## O=C(COc1ccc2cc(/C=C3/SC(=O)NC3=O)ccc2c1)Nc1ccc(Cl)c(Cl)c1 [7h, N-(3,4-Dichlorophenyl)-2-((6-((2,4-dioxothiazolidin-5-ylidene)-methyl)naphthalen-2-yl)oxy)acetamide]
[7]
  HDAC8 inhibition (in words): inactive; also recorded: not active

## O=C(COc1ccc2cc(/C=C3/SC(=O)NC3=O)ccc2c1)Nc1c(F)cc(F)cc1Br [7i, N-(2-Bromo-4,6-difluorophenyl)-2-((6-((2,4-dioxothiazolidin-5-ylidene)methyl)naphthalen-2-yl)oxy)acetamide]
[7]
  HDAC8 inhibition (in words): inactive
[3]
  SCI (CC50 HS-27/CC50 cancer), CEM: 4.2
[4]
  SCI (CC50 HS-27/CC50 cancer), Ramos: 4.2
[5]
  SCI (CC50 HS-27/CC50 cancer), HeLa: 3.8

## O=C(COc1ccc2cc(/C=C3/SC(=O)NC3=O)ccc2c1)Nc1ccccc1Oc1ccccc1 [7j, 2-((6-((2,4-Dioxothiazolidin-5-ylidene)methyl)naphthalen-2-yl)-oxy)-N-(2-phenoxyphenyl)acetamide]
[8]
  % cell death at 10 μM, HS-27: 0%
[4]
  SCI (CC50 HS-27/CC50 cancer), Ramos: >10
[5]
  SCI (CC50 HS-27/CC50 cancer), HeLa: >10
[9]
  cytotoxicity at 10 µM: > 40%

## O=C(COc1ccc2cc(/C=C3/SC(=O)NC3=O)ccc2c1)Nc1ccc(F)cc1F [7k, N-(2,4-Difluorophenyl)-2-((6-((2,4-dioxothiazolidin-5-ylidene)-methyl)naphthalen-2-yl)oxy)acetamide]
[7]
  HDAC8 inhibition (in words): inactive

## Cc1cc(Br)ccc1NC(=O)COc1ccc2cc(/C=C3/SC(=O)NC3=O)ccc2c1 [7l, N-(4-Bromo-2-methylphenyl)-2-((6-((2,4-dioxothiazolidin-5-ylidene)methyl)naphthalen-2-yl)oxy)acetamide]
[5]
  SCI (CC50 HS-27/CC50 cancer), HeLa: >10

## Cc1cccc(NC(=O)COc2ccc3cc(/C=C4/SC(=O)NC4=O)ccc3c2)n1 [7n, 2-((6-((2,4-Dioxothiazolidin-5-ylidene)methyl)naphthalen-2-yl)-oxy)-N-(6-methylpyridin-2-yl)acetamide]
[1]
  potency toward HDAC4 over HDAC8 (from IC50 values): at least 2 fold

## O=C(COc1ccc2cc(/C=C3/SC(=O)NC3=O)ccc2c1)Nc1ccc(Br)cc1 [7o, N-(4-Bromophenyl)-2-((6-((2,4-dioxothiazolidin-5-ylidene)-methyl)naphthalen-2-yl)oxy)acetamide]
[5]
  SCI (CC50 HS-27/CC50 cancer), HeLa: >10

## O=C(COc1ccc2cc(/C=C3/SC(=O)NC3=O)ccc2c1)Nc1cc(Cl)cc(C(F)(F)F)c1 [7p, N-(3-Chloro-5-(trifluoromethyl)phenyl)-2-((6-((2,4-dioxothiazoli-din-5-ylidene)methyl)naphthalen-2-yl)oxy)acetamide]
[7]
  HDAC8 inhibition (in words): did not show HDAC8 inhibition

## O=C(COc1ccc2cc(/C=C3/SC(=O)NC3=O)ccc2c1)Nc1ccc(Br)cc1F [7r, N-(4-Bromo-2-fluorophenyl)-2-((6-((2,4-dioxothiazolidin-5-ylidene)methyl)naphthalen-2-yl)oxy)acetamide]
[7]
  HDAC8 inhibition (in words): inactive

## O=C(COc1ccc2cc(/C=C3/SC(=O)NC3=O)ccc2c1)Nc1cccc(F)n1 [7s, 2-((6-((2,4-Dioxothiazolidin-5-ylidene)methyl)naphthalen-2-yl)-oxy)-N-(6-fluoropyridin-2-yl)acetamide]
[1]
  potency toward HDAC4 over HDAC8 (from IC50 values): at least 2 fold

## Cc1ccc(NC(=O)COc2ccc3cc(/C=C4/SC(=O)NC4=O)ccc3c2)cc1Cl [7u, N-(3-Chloro-4-methylphenyl)-2-((6-((2,4-dioxothiazolidin-5-ylidene)methyl)naphthalen-2-yl)oxy)acetamide]
[7]
  HDAC8 inhibition (in words): not active

## O=C(COc1ccc2cc(/C=C3/SC(=O)NC3=O)ccc2c1)Nc1ccc(Br)c(Br)c1 [7v, N-(3,4-Dibromophenyl)-2-((6-((2,4-dioxothiazolidin-5-ylidene)-methyl)naphthalen-2-yl)oxy)acetamide]
[7]
  HDAC8 inhibition (in words): not active
[10]
  PPARγ transactivation activity (in words): poor activity

## O=C(COc1ccc2cc(/C=C3/SC(=O)NC3=O)ccc2c1)Nc1nc2ccccc2s1 [7w, N-(Benzo[d]thiazol-2-yl)-2-((6-((2,4-dioxothiazolidin-5-ylidene)-methyl)naphthalen-2-yl)oxy)acetamide]
[1]
  potency toward HDAC4 over HDAC8 (from IC50 values): at least 2 fold

## Cc1cccc2sc(NC(=O)COc3ccc4cc(/C=C5/SC(=O)NC5=O)ccc4c3)nc12 [7x, 2-((6-((2,4-Dioxothiazolidin-5-ylidene)methyl)naphthalen-2-yl)-oxy)-N-(4-methylbenzo[d]thiazol-2-yl)acetamide]
[1]
  potency toward HDAC4 over HDAC8 (from IC50 values): at least 2 fold

## CCOc1ccc2nc(NC(=O)COc3ccc4cc(/C=C5/SC(=O)NC5=O)ccc4c3)sc2c1 [7y, 2-((6-((2,4-Dioxothiazolidin-5-ylidene)methyl)naphthalen-2-yl)-oxy)-N-(6-ethoxybenzo[d]thiazol-2-yl)acetamide]
[1]
  potency toward HDAC4 over HDAC8 (from IC50 values): at least 2 fold

## CCc1ccc(CCOc2ccc(CC3SC(=O)NC3=O)cc2)nc1 (stereo not shown) [Pioglitazone, reference compound]
[3]
  cytotoxicity at 50 μM, CEM (printed in CC50 column): 0% @ 50 μM
[3]; listed as pioglitazone
  cytotoxicity at 50 μM, CEM (printed in CC50 column): no cytotoxic effect
[5]; 10 μM, 72 h
  cytotoxicity at 10 μM, HeLa (printed in CC50 column): 0% @ 10 μM

## COc1cccc2c1C(=O)c1c(O)c3c(c(O)c1C2=O)C[C@@](O)(C(=O)CO)C[C@@H]3O[C@H]1C[C@H](N)[C@H](O)[C@H](C)O1 [doxorubicin, reference compound]
[6]
  body weights of the mice: not significantly affected
